The results in this text go back to US6680300B2 (Board of Regents, The University of Texas System, priority 1998, dated 2004).

In test [1] the test system is human carcinoma sensitive (KB) cells. Kind of test: MTT cytotoxicity assay, sensitive KB cells. It counts as cell-based. To be noted: 72 hours incubation. How it is done: (§1) Compounds synthesized using the methods described above were tested using a standard MTT assay (Green et al., 1984) against human carcinoma sensitive (KB) and multi-drug-resistant (KBV1) cells and MCF-7 and MCF-7/VP-16 resistant cells characterized as having the MRP (multi-drug resistant associated protein) phenotype. The use of an MTT assay using these cells is recognized as an accepted assay for anti-tumor activity by those in the field.
(§2) In vitro drug cytotoxicities against human breast carcinoma wild-type MCF-7 and MRP-resistant MCF-7/VP-16 cells were assessed by using the MTT reduction assay, as previously reported (Green et al., 1984). The MTT dye was obtained from Sigma Chemical Co. (St. Louis, Mo.). Cells were plated in 96-well microassay culture plates (10^4 cells/well) and grown overnight at 37° C. in a 5% CO2 incubator. Drugs were then added to the wells to achieve a final drug concentration ranging from 0.1 to 50 μg/mL. Four wells were used for each concentration. Control wells were prepared by adding appropriate volumes of calcium- and magnesium-free PBS (pH 7.4). Wells containing culture medium without cells were used as blanks. The plates were incubated at 37° C. in a 5% CO2 incubator for 72 hours. Upon completion of the incubation, 20 μL of stock MTT dye solution (5 mg/mL) was added to each well. After a 4-hour incubation, 100 μL of buffer containing 50% N,N-dimethylformamide and 20% SDS was added to solubilize the MTT formazan. Complete solubilization was achieved by placing the plate in a mechanical shaker for 30 minutes at room temperature. The optical density of each well was then measured with a microplate spectrophotometer at a wavelength of 570 nm. The percent cell viability was calculated by the following equation:
(§3) % cell viability=(OD treated wells/OD control wells)×100
where OD is the mean optical density from four determinations. The percent cell viability values were plotted against the drug concentrations used, and the ID50 was calculated from the curve. Cytotoxicity experiments were repeated at least three times. […]
On the technique in general: Tetrazolium dyes change colour on reduction, which living cells bring about.

In test [2] the test system is multi-drug-resistant (KBV1) carcinoma cells overexpressing MDR1 (P-gp). Kind of test: MTT cytotoxicity assay, multi-drug-resistant KBV1 cells. Format: cell-based, human. To be noted: for RI (resistance index) KBV1 vs KB: KBV1 relative to KB; for ID50 KBV1: MTT, 72 hours incubation, KBV1 cells. How it is done: as §1, §2, §3
(§4) where OD is the mean optical density from four determinations. The percent cell viability values were plotted against the drug concentrations used, and the ID50 was calculated from the curve. Cytotoxicity experiments were repeated at least three times.
(§5) Drug resistance, both de novo and acquired, by human tumors is currently a major factor limiting the effectiveness of chemotherapy. […] Using this system, the inventors evaluate a drug's cytotoxic potential against human tumors and at the same time identify compounds that might have unique activity against MDR tumors (Priebe et al., 1993).

Test [3] deals with human breast carcinoma wild-type MCF-7 cells. Kind of test: MTT cytotoxicity assay, wild-type MCF-7 cells. It counts as cell-based. To be noted: 72 hours incubation. How it is done:
as §1
(§6) In vitro drug cytotoxicities against human breast carcinoma wild-type MCF-7 and MRP-resistant MCF-7/VP-16 cells were assessed by using the MTT reduction assay, as previously reported (Green et al., 1984). The MTT dye was obtained from Sigma Chemical Co. (St. Louis, Mo.). Cells were plated in 96-well microassay culture plates (10^4 cells/well) and grown overnight at 37° C. in a 5% CO2 incubator. Drugs were then added to the wells to achieve a final drug concentration ranging from 0.1 to 50 μg/mL. Four wells were used for each concentration. […] The optical density of each well was then measured with a microplate spectrophotometer at a wavelength of 570 nm. The percent cell viability was calculated by the following equation: […]
(§7) where OD is the mean optical density from four determinations. The percent cell viability values were plotted against the drug concentrations used, and the ID50 was calculated from the curve. […]

In test [4] the test system is MCF-7/dox cell line which overexpresses MDR1 gene. Kind of test: MTT cytotoxicity assay, MCF-7/dox cells. It counts as cell-based, human. To be noted: for RI (resistance index) MCF-7/dox vs MCF-7: MCF-7/dox relative to MCF-7; for ID50 MCF-7/dox: MTT, 72 hours incubation, MCF-7/dox cells. The method, then:
[Worded in the source for another cell line; this cell line is reported under the same test.] as §1, §2, §3, §4, §5

Test [5] concerns MRP-resistant MCF-7/VP-16 cells. Kind of test: MTT cytotoxicity assay, MRP-resistant MCF-7/VP-16 cells. Format: cell-based, human. How it is done:
as §1, §6, §7

In another test the test system is several cell lines. Kind of test: In vitro potency comparison in several cell lines. To be noted: in vitro cytotoxicity. It counts as cell-based.

SMILES strings stand for the structures. Converted amounts (≈) assume the structure as drawn. “And” between values parts separate entries of the source, which are not always exact repeats. Identical values can stand only once.

On to `COc1cccc2c1C(=O)c1c(O)c3c(c(O)c1C2=O)C[C@@](O)(C(C)=O)C[C@@H]3O[C@H]1C[C@H](N)[C@H](O)[C@H](C)O1` [DNR, daunorubicin], for which the “ID50 KB” value in test [1] stood at 220 ± 10 ng/mL (≈ 417 nM). For the same compound, in test [2], the “RI (resistance index) KBV1 vs KB” value was found to be 45 and the “ID50 KBV1” value is given as 10,000 ± 0 ng/mL.
As to `COc1cccc2c1C(=O)c1c(O)c3c(c(O)c1C2=O)C[C@@](O)(C(=O)CO)C[C@@H]3O[C@H]1C[C@H](N)[C@H](O)[C@H](C)O1` [DOX, doxorubicin], in test [1], the “ID50 KB” value was 340 ± 100 ng/mL (≈ 626 nM). For the same compound, in test [2], the “RI (resistance index) KBV1 vs KB” value is recorded as >294 and the “ID50 KBV1” value was >100,000 ng/mL. The “ID50 MCF-7” value in test [3] is 300 ± 170 ng/mL and 240 ± 50 ng/mL. In test [4], the “RI (resistance index) MCF-7/dox vs MCF-7” value was >333 and >416; the “ID50 MCF-7/dox” value is 100,000 ng/mL and >100,000 ng/mL.
With `COc1cccc2c1C(=O)c1c(O)c3c(c(O)c1C2=O)C[C@@](O)(C(=O)CO)C[C@@H]3O[C@H]1C[C@H]2[C@H](OC3CCCN32)[C@H](C)O1` (stereo partly shown) [WP836], the “ID50 KB” value in test [1] was 0.65 ± 0.14 ng/mL and 0.5 ± 0.06 ng/mL. In test [3], the “ID50 MCF-7” value amounted to 0.43 ± 0.06 ng/mL (≈ 0.722 nM). Further, the “RI (resistance index) MCF-7/VP-16 vs MCF-7” value in test [5] (MCF-7/VP-16 relative to MCF-7) was determined as 1. Besides, the “ID50 MCF-7/VP-16” value in test [5] (MTT, 72 hours incubation, MCF-7/VP-16 cells) worked out at 0.43 ± 0.06 ng/mL (≈ 0.722 nM). For the same compound, in test [4], the “RI (resistance index) MCF-7/dox vs MCF-7” value was 1.56 and the “ID50 MCF-7/dox” value is 0.67 ± 0.15 ng/mL (≈ 1.12 nM). Also, the “potency relative to daunorubicin analog WP809” value in the test on several cell lines is listed as “several fold”.
